Assay results from ChEMBL document CHEMBL3988442, “University of Dundee, Small-Polar-MMV Screening Library” (2021).

System: Schistosoma mansoni
Assay: High throughput screening of compounds against Schistosoma mansoni motility
Format: functional
Design: dose or concentration left out as unconfirmed

| Structure (SMILES) | Percent Effect |
| --- | --- |
| CCc1nnc2n1CCN(Cc1csc(-c3ccsc3)n1)C2 | -55.89% |
| O=C(c1cc(=O)[nH]c(=O)[nH]1)N1CCCCC1c1nc2cc(F)ccc2[nH]1 (stereo unspecified) | -2.098% |
| CNc1nc(C(=O)N2CCCC(c3nccn3CC3CCC3)C2)cs1 (stereo unspecified) | -15.23% |
| CC1(NC(=O)Cc2csc(C(C)(C)C)n2)CCS(=O)(=O)C1 (stereo unspecified) | -25.94% |
| O=C(NCc1ccoc1)Nc1ccc(CN2CCOC2=O)cc1 | -8.505% |
| CS(=O)(=O)N1CCc2nc(NC(=O)Nc3c(F)cccc3F)sc2C1 | -37.65% |
| Cc1ccc(S(=O)(=O)NC2CNC(=O)C2)cc1C (stereo unspecified) | -73.52% |
| CC(C)=CCN1C(=O)[C@H]2CC[C@@H]1CN(Cc1cccnc1N)C2 | -5.593% |
| CC(=O)NCCN1CCC(c2cccs2)CC1 | -65.41% |
| CC(O)CN1CCC(CNCc2ccc(S(C)(=O)=O)cc2)CC1 (stereo unspecified) | -16.24% |
| Cc1n[nH]c(C)c1C1CCCN1C(=O)CNC(=O)C(C)(C)C (stereo unspecified) | -23.3% |
| O=C(Nc1cccc(CN2CCOC2=O)c1)N1CCOCC1 | 11.29% |
| COCCN1CCN(C(=O)c2cc(C(C)C)on2)[C@H]2CS(=O)(=O)C[C@H]21 | 3.129% |
| NC(=O)CSCCC(=O)N1CCCC1c1ccsc1 (stereo unspecified) | 10.97% |
| COc1ccc(OC)c(CNCCc2cc(F)cc3c2OCOC3)c1 | 89.81% |
| O[C@H]1[C@H](n2cc(-c3cccnc3)nn2)c2ccccc2C12CCNCC2 | -35.88% |
| Cc1ccc(CNCC2CCc3nnc(C(C)C)n3C2)s1 (stereo unspecified) | 21.49% |
| CCn1nc(CC(C)C)cc1C(=O)NCCn1cccc1 | -58.97% |
| Cc1cc(C(=O)N2CCC(c3nccn3CCCN(C)C)CC2)no1 | -19.46% |
| COc1cccc(C(=O)N2CCCC(C(=O)CCc3ccccc3)C2)c1 (stereo unspecified) | 20.31% |
| Cc1ccc(S(=O)(=O)NC2CC2)cc1C | -24.32% |
| Cc1cccnc1NC(=O)CSc1ccc2c(c1)OCCO2 | -40.06% |
| CC(C)C(=O)N1CCN(C(=O)c2cscn2)[C@H]2CS(=O)(=O)C[C@H]21 | -16.72% |

| Structure (SMILES) | Percent Effect |
| --- | --- |
| CC(C)C1CN(c2ncc(F)cn2)CCC(=O)N1Cc1ccc(F)cc1 (stereo unspecified) | 75.74% |
| CSCC(C)(O)CNC(=O)c1cc(Br)ccc1Cl (stereo unspecified) | -27.72% |
| c1ccc(C2CCCN2Cc2nnnn2C2CC2)cc1 (stereo unspecified) | -33.61% |
| CCS(=O)(=O)N1CCC(c2nnc(Cn3cccn3)n2C2CC2)CC1 | -7.484% |
| Cc1nn(C)c(C)c1NC(=O)CN1CCCC1c1noc(C2CC2)n1 (stereo unspecified) | -50.94% |
| Cc1ccccc1N1CCCN(C(=O)CCCS(N)(=O)=O)CC1 | -57.21% |
| O=C(CCc1cc2n(n1)CCCN(C(=O)c1ccccn1)C2)NC1CC1 | -25.84% |
| O=C(Nc1ccc(F)cc1)N1C[C@H]2CC[C@@H]1CN(Cc1cccnc1)C2 | -3.001% |
| Cc1ccsc1CN(Cc1ccccn1)CC(C)C | 6.222% |
| CN1CCN(CCCNC(=O)c2cc(Cl)c3c(c2)OCO3)CC1 | -22.9% |
| CN(C)C(=O)c1ccc2c(c1)N(C)C(CC(=O)NCc1ccno1)CO2 (stereo unspecified) | 0.8383% |
| CNC(=O)c1ccc(OC2CCN(S(C)(=O)=O)CC2)c(Cl)c1 | 40.62% |
| CC(c1ccccc1)n1c(SCC(=O)O)nnc1-c1ccccc1Cl (stereo unspecified) | 15.81% |
| O=C(NC[C@@H]1CCCN1)c1cc(COc2cccc(C(F)(F)F)c2)[nH]n1 | 73.28% |
| CS(=O)(=O)c1ccccc1C(=O)NCC1Cc2ccccc2O1 (stereo unspecified) | -25.81% |
| CCSCC(C)NCc1nncn1C1CCCCC1 (stereo unspecified) | 1.244% |
| CN(CCc1ccccc1)c1cnn(CC(=O)N2CCSCC2)c(=O)c1 | -28.25% |
| Cc1cnc2n(c1=O)CC(C(=O)Nc1ccccc1Cl)CS2 (stereo unspecified) | -94.31% |
| CN(C)Cc1nnc(C2CCN(c3nccc(N)n3)CC2)n1C1CC1 | -22.89% |
| CC1CCN(CCNC(=O)C2CCN(S(N)(=O)=O)CC2)CC1 | 6.276% |
| CCc1nnc(CN(C)c2nc(C(C)C)nc3c2cnn3C)o1 | -37.68% |
| Cc1n[nH]c(C2CN(CC(=O)NCCc3ccsc3)CCO2)n1 (stereo unspecified) | -117.4% |
| Cc1cc(NC(=O)CCc2ccsc2)n(C)n1 | 18.83% |

| Structure (SMILES) | Percent Effect |
| --- | --- |
| COC(=O)c1ccc2ccn(CC3CCNC3)c(=O)c2c1 (stereo unspecified) | -40.15% |
| Cc1ccc(C(=O)NC(CN2CCCC2=O)c2ccccc2)c(=O)[nH]1 (stereo unspecified) | -58.7% |
| N#Cc1c(F)cccc1N1CCC(NS(=O)(=O)c2cccs2)CC1 | 28.82% |
| COCCN1C(=O)CC(N2CCN(c3ccc(OC)cc3)CC2)C1=O (stereo unspecified) | -42.76% |
| Cc1cc(F)ccc1CNCCn1cccn1 | -28.39% |
| CCCNC(=O)C(C)NC(=O)CCc1ccccc1Br (stereo unspecified) | 31.68% |
| CCN(c1ccc(C(=O)N2CCCC(C)C2)cc1)S(=O)(=O)CC (stereo unspecified) | -11.81% |
| CCN1CCCC1CN(CCN(C)C)S(=O)(=O)c1ccc(C#N)cc1 (stereo unspecified) | 8.845% |
| CC1CCN(S(=O)(=O)c2cccn(CC(=O)NC3CCCC3)c2=O)CC1 | -45% |
| CCc1nnc2n1CCN(Cc1csc(-c3cnn(C)c3)n1)C2 | -30.99% |
| CN(C)S(=O)(=O)N1C[C@@H]2CC[C@H](C1)N(Cc1ccc3nsnc3c1)C2 | -23.4% |
| O=C(NCCN1CCC(c2cccs2)CC1)c1ccccc1C(F)(F)F | 2.003% |
| Cn1ccnc1-c1cccc(NC(=O)NCCN2CCOCC2)c1 | -15.26% |
| Cc1ccsc1[C@@H]1CCN(C(=O)CCC(=O)N2CCCCCC2)C[C@H]1O | -14.8% |
| CC(C)N1CCC(N2CCN(C3CCC3)CC2CCO)CC1 (stereo unspecified) | 7.869% |
| COCCNC(=O)Cn1nc(C(C)C)c2cnn(C(C)(C)C)c2c1=O | -20.39% |
| Cc1cccc(N2CCC(NC(=O)CCCc3cccs3)CC2)n1 | -13.77% |
| Cc1nc(CN2CCCC2c2nc(C(C)C)no2)cs1 (stereo unspecified) | -46.84% |
| Cc1nn(C)c(N(C)C)c1CNCC(O)COc1ccccc1.Cl (stereo unspecified) | -91.65% |
| COCc1ccccc1C(=O)NCCCN1CCCC1C(=O)N(C)C (stereo unspecified) | -41.89% |
| CSCC(CCO)NC(=O)Nc1cccc(Br)c1 (stereo unspecified) | -21.75% |
| Cc1cc(C(=O)N2CCCC2c2nnc3n2CCCCC3)no1 (stereo unspecified) | -2.272% |
| CCc1cnc(CN(C)C2CCN(CCS(C)(=O)=O)C2)o1 (stereo unspecified) | -9.705% |

| Structure (SMILES) | Percent Effect |
| --- | --- |
| COCC(O)CNC(=O)c1coc(COc2ccc3sc(C)nc3c2)n1 (stereo unspecified) | 22.1% |
| CCS(=O)(=O)N(C)c1ccc(C(=O)N2CCCC(C)C2)cc1 (stereo unspecified) | -22.28% |
| Cc1nc[nH]c1-c1nc2cc(S(=O)(=O)N3CCCC3)ccc2n1C | -57.95% |
| O=C(NCC(O)c1cccs1)c1cccc(Cl)c1 (stereo unspecified) | -28.05% |
| Cc1noc(C)c1CCC(=O)N1CCN(CCn2cccn2)CC1 | -23.72% |
| CC(=O)NCC1CCN(CC2CCOc3ccccc3C2)CC1 (stereo unspecified) | -62.7% |
| Cn1c(C(F)(F)F)nn(CCNC(=O)NCc2ccccc2)c1=O | 16.6% |
| COC(=O)CS(=O)(=O)CCC(=O)N1CCCC1c1ccsc1 (stereo unspecified) | -22.42% |
| CNC(=O)CS(=O)(=O)C1CCN(S(=O)(=O)C2CC2)CC1 | 7.856% |
| O=C1CCC2(CCN(Cc3cc(F)cc(F)c3)CC2)CN1CCO | 4.054% |
| NC(=O)NCC(=O)N1C[C@H]2CC[C@@H]1CN(Cc1ccccc1)C2 | -13.56% |
| O=C1CC2(CCN(CCO)CC2)CN1Cc1cc(F)cc(F)c1 | 8.592% |
| CN(C)S(=O)(=O)N1CCC(Oc2ccc(C#N)cc2)CC1 | 21.82% |
| CCc1noc(C(C)N(C)CC(=O)Nc2ccc(C)cc2)n1 (stereo unspecified) | -42.61% |
| COc1ccc(-n2nnc(C(=O)NC(C)C)c2C2CC2)cc1 | 0.8394% |
| O=S(=O)(c1ccccc1)N1CCN(CCn2ccnc2)CC1 | -51.46% |
| OCC1CCCN1c1cc(NCCNc2ccccn2)ncn1 (stereo unspecified) | -56.18% |
| O=C(NS(=O)(=O)c1cc(Cl)sc1Cl)c1cccc2c1OCCO2 | -35.56% |
| COc1ccc(CNC(=O)NC2CCC(O)CC2)c(C(F)(F)F)c1 (stereo unspecified) | -1.236% |
| O=C(c1cnc(COc2ccccc2)nc1O)N1CCOCC1 | 1.503% |
| O=C(c1cc(Cl)c2c(c1)OCO2)N1CCN(c2nccs2)CC1 | -51.67% |
| COCCCC1(CO)CCCN(CCS(C)(=O)=O)C1 (stereo unspecified) | -38.37% |
| Cc1ccc(NC(C)C(=O)NCc2cccs2)cc1C (stereo unspecified) | -60.11% |

| Structure (SMILES) | Percent Effect |
| --- | --- |
| CC(C)NC(=O)[C@@H]1C[C@H](N)CN1C(=O)c1cc2ccccc2[nH]c1=O | -4.577% |
| CCc1cc(NC2CCN(S(C)(=O)=O)CC2)n2nc(C)c(C)c2n1 | -49.44% |
| C1CCCN(c2nc(C3CC3)ns2)CC1 | -22.51% |
| O=C(NCC1CCN(C(=O)c2ccoc2)CC1)c1ccccc1Br | -0.2634% |
| CC(C)CNC(=O)Nc1ccc(CN2CCOC2=O)cc1 | 8.42% |
| Cc1cc(N2CCN(Cc3nccn3C)CC2)cc(C)n1 | -24.56% |
| Cc1occc1C(=O)N1CCC2(CCC(=O)N(CC(N)=O)C2)CC1 | 13.97% |
| Cc1ccc(CC(=O)N2CCOC(c3nc(C(C)(C)C)n[nH]3)C2)cn1 (stereo unspecified) | 7.474% |
| Cn1c(CN2CCN(CC3CC3)CC2)nnc1C1CCC1 | -23.98% |
| CCCC(C)CN1CCC(n2cc(CCCO)nn2)CC1 (stereo unspecified) | -31.48% |
| O=S(=O)(c1cccnc1)N1CCN(CCn2ccnc2)CC1 | -24.98% |
| Cc1nc(C)n(CC2CCCN2CC(=O)NCCc2ccccc2)n1 (stereo unspecified) | -20.52% |
| Cc1ccn(-c2ccccc2NCc2cccnc2C)n1 | -3.196% |
| COCc1cn([C@@H]2c3ccccc3C3(CCNCC3)[C@H]2O)nn1 | -22.09% |
| CC1CCN(Cc2cnc(S(=O)(=O)CC3CC3)n2CC2CCCO2)CC1 (stereo unspecified) | -34.33% |
| NC(=O)CN1CCC(NC(=O)c2ccn(-c3cccc(F)c3)n2)CC1 | 5.204% |
| Cc1nc(C)n(CC2CN(CC(=O)Nc3nccs3)CCO2)n1 (stereo unspecified) | -3.889% |
| CC(=O)N1CCC(Oc2ccc(Cl)cn2)CC1 | -33.97% |
| CN(C)C(CNC(=O)c1cccc(-n2cnnn2)c1)c1ccccc1Cl (stereo unspecified) | 53.46% |
